From patent publication US20150031739A1, “PANOBINOSTAT FOR USE IN THE TREATMENT OF HIV-1” (Aarhus Universitet, priority 2012, published 2015)

Experiments:
Cytotoxicity of LBH589 = type: cell-based; settings: up to 30 nM
[1] = system: HIV proviral DNA in CD4+ T cells; assay: Total HIV proviral DNA in purified CD4+ T cells of treated patients; type: in vivo, HIV-1
Description: DNA was isolated from 1×10^6 CD4+ T cells using AllPrep DNA/RNA Mini kit according to the manufacturer's specifications (Qiagen, Denmark). Cell equivalents were based on RNAseP amplification. The following primers were used to target human RNAseP 5′-[…]-3′ (forward) (SEQ ID NO: 5) and 5′-[…]-3′ (reverse) (SEQ ID NO: 6). Amplification reactions were carried out in duplicates with a primer concentration of 0.5 μM, 10 μL SsoFast™ EvaGreen® Supermix and 1 μL 100-fold diluted DNA as template in 20 μl total volume.
Using the RNAsePgenome copy number, sample DNA was diluted to 50,000 cell equivalents per PCR reaction. To determine the frequency of CD4+ T cells carrying HIV DNA, we prepared a standard curve obtained by serially diluted DNA from 8E5 cells (carrying one integrated provirus per genome) combined with DNA from HIV-negative PBMCs (305, 153, 76, 38, 19, 9 HIV DNA copies and 100,000 HIV negative cell equivalents per well). The following primers were used to target HIV-DNA: 5′-[…]-3′ (forward) (SEQ ID NO: 7) and 5′-[…]-3′ (reverse) (SEQ ID NO: 8).
The amplification reaction was carried out in triplicates with a primer concentration of 0.5 μM, 10 μL SsoFast™ EvaGreen® Supermix and 100,000 genomes as template in 20 μl total volume on a Bio-Rad CFX96™ Real-time PCR Platform. PCR conditions were as follows: A denaturation step at 95° C. followed by 45 cycles of 10 seconds at 95° C. and 25 seconds at 62° C. Subsequently a melt curve was obtained heating from 65° C. to 95° C. with a 0.5° C. increment for 5 seconds. Cycle cut off was set at 39 cycles. Amplification products were verified by dissociaton curve. Copy number of HIV DNA per 1×10^6 CD4+ T cells was calculated from the real-time PCR results.
From the HIV DNA standard curve we set a lower limit of quantification of 12 copies HIV DNA/10^6 CD4+ T cells.
Samples were drawn from two patients at Baseline (prior to initiation of panobinostat treatment) and after 4 weeks and 8 weeks cyclic panobinostat treatment 20 mg TIW every other week.

[2] = system: CD69 expression in CD4+ T-cells; assay: Activation of primary T lymphocytes (CD69 expression, flow cytometry); type: cell-based, human; settings: 16 hours
Description: Expression of the early activation marker CD69 was assessed by flow cytometry in 8 separate experiments with data from one representative experiment shown in figure.
Activation of primary T lymphocytes: PBMC's are purified using Ficoll Paque gradient centrifugation from fresh blood obtained from healthy donors. 5*10^5 cells are stimulated by different concentrations of HDACi in final volume of 500 uL RPMI media supplemented with 10% heat inactivated Foetal Bovine Serum and 1% penicillin/streptomycin. After 16 hours cells are harvested and washed once in PBS. Cells are stained with Live-dead near IR at a final concentration of 2 uM (Invitrogen, Denmark) for 30 min on ice. Cells are washed twice in PBS. Five uL Fc Block (Sigma, Denmark) at 10 mg/mL is added and cells are incubated 10 min on ice. Cells are subsequently stained with 5 uL CD4 PerCPCy5.5, 5 uL CD27 PE-Cy7, 7 uL CD45RA FITC, 20 uL CCR7 PE all (BD, USA) and 10 uL CD69 APC (BioLegend, USA) for 30 min on ice. Lastly, cells are washed once in PBS and resuspended in FACS flow buffer and stored on ice until analysis by flow cytometry.

[3] = 20 mg oral; cited from earlier work

Which cytotoxicity (Cytotoxicity of LBH589) does the source give for `Cc1[nH]c2ccccc2c1CCNCc1ccc(/C=C/C(=O)NO)cc1` [LBH589, N-Hydroxy-3-[4-[2-(2-methyl-1H-indol-3-yl)ethylaminomethyl]phenyl]-2(E)-propenamide] here?
Its cytotoxicity is “No cytotoxicity above background”.

And the “proviral DNA level” value ([1]; patient A, end of treatment (8 weeks), baseline 46 copies/10^6 CD4+ T cell)?
Its value is “remained low”.

What about the “proviral DNA level” value ([1]; patient A, first two treatment cycles (4 weeks), 20 mg TIW every other week, baseline 46 copies/10^6 CD4+ T cell, lower limit of quantification 12 copies) of the same compound?
Its value is “dropped below detection”.

What about the “proviral DNA level” value ([1]; patient B, after 4 weeks, baseline 173 copies/10^6 CD4+ T cells) of the same compound?
The value was 125 copies/10^6 CD4+ T cell.

What about the “proviral DNA level” value ([1]; patient B, end of treatment (8 weeks), baseline 173 copies/10^6 CD4+ T cells, lower limit of quantification 12 copies) of the same compound?
Its value is “undetectable”.

What about the “concentration at which induction of CD69 expression occurred, compared with other HDACi” value ([2]; CD4+ T-cells) of the same compound?
Its value is “much lower concentrations of LBH589 than ITF2357, PXD101, and SAHA”.

And the “proportion of primary T-cells expressing the early activation marker CD69” value ([2]; PBMCs from healthy donors, increasing concentrations (2-31 nM), compared to untreated cells)?
The value was “increased”.

What about the “CD69 expression in memory T-cell subsets” value ([2]; central memory T-cells) of the same compound?
Its value is “highest levels”.

And the maximal plasma concentration [3]?
The maximal plasma concentration was “approximately 60 nM”.
